Laboratory results as given in US8895733B2 (Novartis AG, priority 2010, dated 2014).

Target: T1, Nav 1.7 (Homo sapiens, UniProt Q15858)
T1 construct: expressed in transfected cells
Test: Whole-cell voltage clamp electrophysiology, automated patch clamp (marker c in Table of Examples)
Format: cell-based
Conditions: marker c = Automated patch clamp data; read-out: Nav 1.7 activity
Procedure, shortened: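 A voltage protocol weighted toward inactivated-state block was used to test compounds on stably expressing cells, with pulses from −65 mV holding to −10 mV test and −100 mV. Currents came from whole-cell automated patch-clamp recordings, either IonWorks Quattro or other automated instruments, usually in perforated-patch mode.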

T1 sequence (Q15858 whole entry): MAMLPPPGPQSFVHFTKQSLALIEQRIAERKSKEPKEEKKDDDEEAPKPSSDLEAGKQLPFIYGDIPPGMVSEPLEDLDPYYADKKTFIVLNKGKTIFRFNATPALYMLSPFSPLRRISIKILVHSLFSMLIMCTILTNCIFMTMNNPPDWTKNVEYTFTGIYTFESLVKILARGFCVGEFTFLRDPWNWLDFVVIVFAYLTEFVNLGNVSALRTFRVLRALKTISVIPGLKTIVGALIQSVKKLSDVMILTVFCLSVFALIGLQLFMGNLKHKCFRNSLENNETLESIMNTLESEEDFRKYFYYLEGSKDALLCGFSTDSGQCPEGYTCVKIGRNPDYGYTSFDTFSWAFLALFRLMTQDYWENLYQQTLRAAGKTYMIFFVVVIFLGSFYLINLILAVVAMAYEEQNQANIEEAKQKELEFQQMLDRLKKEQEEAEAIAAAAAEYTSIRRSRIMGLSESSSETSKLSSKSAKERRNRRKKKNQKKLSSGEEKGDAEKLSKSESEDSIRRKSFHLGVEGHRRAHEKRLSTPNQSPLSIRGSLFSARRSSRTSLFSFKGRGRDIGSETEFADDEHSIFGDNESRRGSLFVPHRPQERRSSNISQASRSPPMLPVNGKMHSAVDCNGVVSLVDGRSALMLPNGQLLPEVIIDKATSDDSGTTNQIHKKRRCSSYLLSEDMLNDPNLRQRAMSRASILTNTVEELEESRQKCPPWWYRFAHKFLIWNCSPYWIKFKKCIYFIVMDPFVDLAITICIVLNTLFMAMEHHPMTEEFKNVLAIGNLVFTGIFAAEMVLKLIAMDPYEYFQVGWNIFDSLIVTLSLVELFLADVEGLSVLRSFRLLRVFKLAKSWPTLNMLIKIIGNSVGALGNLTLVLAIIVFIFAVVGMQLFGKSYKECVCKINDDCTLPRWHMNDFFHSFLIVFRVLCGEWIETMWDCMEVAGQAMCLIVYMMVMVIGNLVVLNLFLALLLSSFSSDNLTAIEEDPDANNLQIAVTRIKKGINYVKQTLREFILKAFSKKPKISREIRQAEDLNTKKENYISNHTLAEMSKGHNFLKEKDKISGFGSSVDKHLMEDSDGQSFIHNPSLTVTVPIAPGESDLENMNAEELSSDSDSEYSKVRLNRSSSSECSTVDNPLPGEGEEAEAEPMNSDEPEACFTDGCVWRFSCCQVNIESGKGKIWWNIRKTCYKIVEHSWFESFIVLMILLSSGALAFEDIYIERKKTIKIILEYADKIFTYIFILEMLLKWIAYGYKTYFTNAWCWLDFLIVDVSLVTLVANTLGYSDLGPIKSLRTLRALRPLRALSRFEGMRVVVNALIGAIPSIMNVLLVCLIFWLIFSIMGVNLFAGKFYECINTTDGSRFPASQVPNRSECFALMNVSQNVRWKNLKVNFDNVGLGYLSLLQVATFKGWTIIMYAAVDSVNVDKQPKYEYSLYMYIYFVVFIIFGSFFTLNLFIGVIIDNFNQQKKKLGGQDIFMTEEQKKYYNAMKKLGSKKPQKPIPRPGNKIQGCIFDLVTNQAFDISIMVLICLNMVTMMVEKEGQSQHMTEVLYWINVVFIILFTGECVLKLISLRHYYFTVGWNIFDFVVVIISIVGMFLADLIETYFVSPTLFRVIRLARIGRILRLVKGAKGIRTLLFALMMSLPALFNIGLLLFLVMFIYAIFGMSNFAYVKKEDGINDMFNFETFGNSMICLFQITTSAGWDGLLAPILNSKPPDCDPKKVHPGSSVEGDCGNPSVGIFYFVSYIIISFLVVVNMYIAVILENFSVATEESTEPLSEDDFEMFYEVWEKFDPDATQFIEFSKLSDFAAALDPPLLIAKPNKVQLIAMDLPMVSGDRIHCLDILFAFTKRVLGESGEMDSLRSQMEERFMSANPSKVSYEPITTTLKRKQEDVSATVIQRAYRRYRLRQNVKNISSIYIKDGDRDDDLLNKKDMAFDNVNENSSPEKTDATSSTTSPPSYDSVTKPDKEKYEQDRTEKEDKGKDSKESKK

SMILES	IC50 [µM]
CN(c1ccccc1)c1nc(N)nc(-c2noc([C@@H]3CCCN3C(=O)CC3CC3)n2)n1 [Example 450, 1-[(2S)-2-(3-{4-amino-6-[methyl(phenyl)amino]-1,3,5-triazin-2-yl}-1,2,4-oxadiazol-5-yl)pyrrolidin-1-yl]-2-cyclopropylethan-1-one]	9.53
CN(c1ccccc1)c1nc(N)nc(-c2noc([C@@H]3CCCN3C(=O)CC(F)(F)F)n2)n1 [Example 451, 1-[(2S)-2-(3-{4-amino-6-[methyl(phenyl)amino]-1,3,5-triazin-2-yl}-1,2,4-oxadiazol-5-yl)pyrrolidin-1-yl]-3,3,3-trifluoropropan-1-one]	7.95
CN(c1ccccc1)c1nc(N)nc(-c2noc(-c3ccc(SCC4CC4)nc3)n2)n1 [Example 452, 6-(5-{6-[(cyclopropylmethyl)sulfanyl]pyridin-3-yl}-1,2,4-oxadiazol-3-yl)-2-N-methyl-2-N-phenyl-1,3,5-triazine-2,4-diamine]	0.061
CN(c1ccccc1)c1nc(N)nc(-c2noc(-c3ccc(SCCC(F)(F)F)nc3)n2)n1 [Example 453, 2-N-methyl-2-N-phenyl-6-{5-{6-[(3,3,3-trifluoropropyl)sulfanyl]pyridin-3-yl}-1,2,4-oxadiazol-3-yl)-1,3,5-triazine-2,4-diamine]	0.121
CN(c1ccccc1)c1nc(N)nc(-c2noc(-c3ccc(S(=O)(=O)CCC(F)(F)F)nc3)n2)n1 [Example 454, 2-N-methyl-2-N-phenyl-6-(5-{6-[(3,3,3-trifluoropropane)sulfonyl]pyridin-3-yl}-1,2,4-oxadiazol-3-yl)-1,3,5-triazine-2,4-diamine]	0.29
CN(c1ccccc1)c1nc(N)nc(-c2noc(-c3ccc([S+]([O-])CCC(F)(F)F)nc3)n2)n1 (stereo not drawn) [Example 455, 2-N-methyl-2-N-phenyl-6-(5-{6-[(3,3,3-trifluoropropane)sulfinyl]pyridin-3-yl}-1,2,4-oxadiazol-3-yl)-1,3,5-triazine-2,4-diamine]	0.057
CN(c1ccccc1)c1nc(N)nc(-c2noc(-c3ccc([S+]([O-])CC4CC4)nc3)n2)n1 (stereo not drawn) [Example 456, 6-{5-[6-(cyclopropylmethane)sulfinylpyridin-3-yl]-1,2,4-oxadiazol-3-yl}-2-N-methyl-2-N-phenyl-1,3,5-triazine-2,4-diamine]	0.31
Nc1nc(Nc2ccccc2)nc(-c2noc(C(=O)N3CCC(OCC(F)(F)F)CC3)n2)n1 [Example 457, 2-N-phenyl-6-(5-{[4-(2,2,2-trifluoroethoxy)piperidin-1-yl]carbonyl}-1,2,4-oxadiazol-3-yl)-1,3,5-triazine-2,4-diamine]	1.3
CCOC1CCN(C(=O)c2nc(-c3nc(N)nc(N(C)c4ccccc4)n3)no2)CC1 [Example 458, 6-{5-[(4-ethoxypiperidin-1-yl)carbonyl]-1,2,4-oxadiazol-3-yl}-2-N-methyl-2-N-phenyl-1,3,5-triazine-2,4-diamine]	4.72
CN(c1ccccc1)c1nc(N)nc(-c2noc(C(=O)N3CCC(COCC4CC4)CC3)n2)n1 [Example 459, 6-[5-({4-[(cyclopropylmethoxy)methyl]piperidin-1-yl}carbonyl)-1,2,4-oxadiazol-3-yl]-2-N-methyl-2-N-phenyl-1,3,5-triazine-2,4-diamine]	3.25
CN(c1ccccc1)c1nc(N)nc(-c2noc(C(=O)N3CCC(COCC(F)(F)F)CC3)n2)n1 [Example 460, 2-N-methyl-2-N-phenyl-6-[5-({4-[(2,2,2-trifluoroethoxy)methyl]piperidin-1-yl]carbonyl)-1,2,4-oxadiazol-3-yl]-1,3,5-triazine-2,4-diamine]	3.03
Nc1nc(Nc2ccccc2)nc(-c2noc(C(=O)N3CCC(COCC(F)(F)F)CC3)n2)n1 [Example 461, 2-N-phenyl-6-[5-({4-[(2,2,2-trifluoroethoxy)methyl]piperidin-1-yl}carbonyl)-1,2,4-oxadiazol-3-yl]-1,3,5-triazine-2,4-diamine]	1.64
Nc1nc(Nc2ccccc2)nc(-c2noc(C(=O)N3CCC(OCC4CC4)CC3)n2)n1 [Example 462, 6-(5-{[4-(cyclopropylmethoxy)piperidin-1-yl]carbonyl}-1,2,4-oxadiazol-3-yl)-2-N-phenyl-1,3,5-triazine-2,4-diamine]	3.61
Nc1nc(Nc2ccccc2)nc(-c2noc(C(=O)N3CCC(COCC4CC4)CC3)n2)n1 [Example 463, 6-[5-({4-[(cyclopropylmethoxy)methyl]piperidin-1-yl}carbonyl)-1,2,4-oxadiazol-3-yl]-2-N-phenyl-1,3,5-triazine-2,4-diamine]	1.82
CN(c1ccccc1)c1nc(N)nc(-c2noc(C(=O)N3CCC(COCCC(F)(F)F)CC3)n2)n1 [Example 464, 2-N-Methyl-2-N-phenyl-6-[5-({4-[(3,3,3-trifluoropropoxy)methyl]piperidin-1-yl}carbonyl)-1,2,4-oxadiazol-3-yl]-1,3,5-triazine-2,4-diamine]	0.719
CN(c1ccccc1)c1nc(N)nc(-c2noc(C(=O)N3CCC(SCC(F)(F)F)CC3)n2)n1 [Example 465, 2-N-methyl-2-N-phenyl-6-[5-({4-[(2,2,2-trifluoroethyl)sulfanyl]piperidin-1-yl}carbonyl)-1,2,4-oxadiazol-3-yl]-1,3,5-triazine-2,4-diamine]	1.04
Nc1nc(Nc2ccccc2)nc(-c2noc(C(=O)N3CCC(SCC(F)(F)F)CC3)n2)n1 [Example 466, 2-N-phenyl-6-[5-({4-[(2,2,2-trifluoroethyl)sulfanyl]piperidin-1-yl}carbonyl)-1,2,4-oxadiazol-3-yl]-1,3,5-triazine-2,4-diamine]	0.741

SMILES	IC50 [µM]
Cc1ncc(-c2nc(-c3nc(N)nc(N(C)c4ccccc4)n3)no2)cn1 [Example 467, 2-N-methyl-6-[5-(2-methylpyrimidin-5-yl)-1,2,4-oxadiazol-3-yl]-2-N-phenyl-1,3,5-triazine-2,4-diamine]	9.93
CN(c1ccccc1)c1nc(N)nc(-c2noc(-c3cnccn3)n2)n1 [Example 468, 2-N-methyl-2-N-phenyl-6-[5-(pyrazin-2-yl)-1,2,4-oxadiazol-3-yl]-1,3,5-triazine-2,4-diamine]	8.91
CN(c1ccccc1)c1nc(N)nc(-c2noc(-c3ccnnc3)n2)n1 [Example 469, 2-N-methyl-2-N-phenyl-6-[5-(pyridazin-4-yl)-1,2,4-oxadiazol-3-yl]-1,3,5-triazine-2,4-diamine]	2.92
CN(c1ccccc1)c1nc(N)nc(-c2noc(-c3ccc(NCC(F)(F)F)cn3)n2)n1 [Example 471, 2-N-methyl-2-N-phenyl-6-(5-{5-[(2,2,2-trifluoroethyl)amino]pyridin-2-yl}-1,2,4-oxadiazol-3-yl)-1,3,5-triazine-2,4-diamine]	0.731
CN(c1ccccc1)c1nc(N)nc(-c2noc(-c3ccc(N4CCCCC4)nc3)n2)n1 [Example 473, 2-N-methyl-2-N-phenyl-6-{5-[6-(piperidin-1-yl)pyridin-3-yl]-1,2,4-oxadiazol-3-yl}-1,3,5-triazine-2,4-diamine]	0.31
CN(c1ccc(F)cc1)c1nc(N)nc(-c2noc(-c3ncccc3F)n2)n1 [Example 474, 2-N-(4-fluorophenyl)-6-[5-(3-fluoropyridin-2-yl)-1,2,4-oxadiazol-3-yl]-2-N-methyl-1,3,5-triazine-2,4-diamine]	0.289
CN(c1nc(N)nc(-c2noc(-c3ncccc3F)n2)n1)c1ccccc1F [Example 475, 2-N-(2-fluorophenyl)-6-[5-(3-fluoropyridin-2-yl)-1,2,4-oxadiazol-3-yl]-2-N-methyl-1,3,5-triazine-2,4-diamine]	0.069
CN(c1cccc(F)c1)c1nc(N)nc(-c2noc(-c3ncccc3F)n2)n1 [Example 476, 2-N-(3-fluorophenyl)-6-[5-(3-fluoropyridin-2-yl)-1,2,4-oxadiazol-3-yl]-2-N-methyl-1,3,5-triazine-2,4-diamine]	0.366
CN(C)C(=O)c1ccc(-c2nc(-c3nc(N)nc(N(C)c4ccccc4)n3)no2)cn1 [Example 478, 5-{3-[4-Amino-6-(methyl-phenyl-amino)-[1,3,5]triazin-2-yl]-[1,2,4]oxadiazol-5-yl}-pyridine-2-carboxylic acid dimethylamide]	8.81
CN(c1ccccc1)c1nc(N)nc(-c2noc(-c3cccnn3)n2)n1 [Example 479, 2-N-methyl-2-N-phenyl-6-[5-(pyridazin-3-yl)-1,2,4-oxadiazol-3-yl]-1,3,5-triazine-2,4-diamine]	1.14
CCOc1cccnc1-c1nc(-c2nc(N)nc(N(C)c3ccccc3)n2)no1 [Example 480, 6-[5-(3-ethoxypyridin-2-yl)-1,2,4-oxadiazol-3-yl]-2-N-methyl-2-N-phenyl-1,3,5-triazine-2,4-diamine]	0.313
CN(c1ccccc1)c1nc(N)nc(-c2noc(-c3ncccc3NC3CC3)n2)n1 [Example 481, 6-{5-[3-(Cyclopropylamino)pyridin-2-yl]-1,2,4-oxadiazol-3-yl}-2-N-methyl-2-N-phenyl-1,3,5-triazine-2,4-diamine]	1.9
CN(c1ccccc1)c1nc(N)nc(-c2noc(-c3ncccc3F)n2)n1 [Example 482, 6-[5-(3-Fluoropyridin-2-yl)-[1,2,4]oxadiazol-3-yl]-N-methyl-N-phenyl-[1,3,5]triazine-2,4-diamine]	0.647
COCCOc1cccnc1-c1nc(-c2nc(N)nc(N(C)c3ccccc3)n2)no1 [Example 483, 6-{5-[3-(2-methoxyethoxy)pyridin-2-yl]-1,2,4-oxadiazol-3-yl}-2-N-methyl-2-N-phenyl-1,3,5-triazine-2,4-diamine]	2.4
CC(C)Oc1cccnc1-c1nc(-c2nc(N)nc(N(C)c3ccccc3)n2)no1 [Example 484, 2-N-methyl-2-N-phenyl-6-{5-[3-(propan-2-yloxy)pyridin-2-yl]-1,2,4-oxadiazol-3-yl}-1,3,5-triazine-2,4-diamine]	0.695
CN(c1ccccc1)c1nc(N)nc(-c2noc(-c3ncccc3OCC(F)(F)F)n2)n1 [Example 486, 2-N-methyl-2-N-phenyl-6-{5-[3-(2,2,2-trifluoroethoxy)pyridin-2-yl]-1,2,4-oxadiazol-3-yl}-1,3,5-triazine-2,4-diamine]	1.22
